Laboratory results published in patent US20250101041A1, “POSITIVE ALLOSTERIC MODULATORS OF THE MUSCARINIC ACETYLCHOLINE RECEPTOR M4” (Vanderbilt University, priority 2022, published 2025).
pEC50: −log10 of the molar value.

Target: T1, human mAChR M4 (Homo sapiens, UniProt P08173)
T1 construct: expressed in transfected cells; host or cells: CHO-K1 (American Type Culture Collection), stably expressing hM4 and Gqi5
T1 sequence (P08173 1-479): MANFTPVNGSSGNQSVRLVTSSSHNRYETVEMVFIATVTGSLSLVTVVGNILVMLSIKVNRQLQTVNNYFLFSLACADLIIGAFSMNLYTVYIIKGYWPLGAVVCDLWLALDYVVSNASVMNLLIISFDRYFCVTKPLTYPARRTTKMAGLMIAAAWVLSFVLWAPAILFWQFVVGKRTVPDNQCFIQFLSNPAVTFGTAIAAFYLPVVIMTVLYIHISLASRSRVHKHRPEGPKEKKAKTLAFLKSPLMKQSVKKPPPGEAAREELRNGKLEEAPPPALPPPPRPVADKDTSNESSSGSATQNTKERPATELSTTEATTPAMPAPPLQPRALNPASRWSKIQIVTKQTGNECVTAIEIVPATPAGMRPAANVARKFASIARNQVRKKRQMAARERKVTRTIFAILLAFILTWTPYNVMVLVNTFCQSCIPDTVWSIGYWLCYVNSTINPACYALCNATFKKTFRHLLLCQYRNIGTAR
Assay: mAChR M4 cell-based functional assay: calcium mobilization (Fluo-4, FDSS), potentiation of EC20 acetylcholine response in hM4-Gqi5 CHO-K1 cells
Conditions: human M4; for Emax at 30 µM: CHO-K1, % ACh maximum at 30 μM; for pEC50: potentiation of EC20 acetylcholine response, calcium mobilization
In short: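 CHO-K1 cells stably co-expressing human M4 and chimeric Gqi5, loaded with Fluo-4 AM (50 min, 37 °C). Compounds in 11-point 1:3 series added first; EC20 acetylcholine added at 144 s and again at 230 s. Calcium read on FDSS at 1 Hz; EC50 and Emax from four-parameter logistic fit of potentiated EC20 response.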

| SMILES | Emax at 30 µM [%] | pEC50 |
| --- | --- | --- |
| Cc1cc2nccc(=O)n2nc1N1CCc2ncc(-c3cccc4ncccc34)cc2C1 [Compound 1-41, 8-methyl-7-(3-(quinolin-5-yl)-7,8-dihydro-1,6-naphthyridin-6(5H)-yl)-4H-pyrimido[1,2-b]pyridazin-4-one] | 83 | 6.37 |
| COCc1cc(=O)n2nc(N3CCc4ncc(-c5ncc(F)cc5F)cc4C3)c(C)cc2n1 [Compound 1-382, 7-(3-(3,5-difluoropyridin-2-yl)-7,8-dihydro-1,6-naphthyridin-6(5H)-yl)-2-(methoxymethyl)-8-methyl-4H-pyrimido[1,2-b] pyridazin-4-one] | 79 | 6.33 |
| Cc1cc2nccc(=O)n2nc1N1CCc2ncc(-c3ccccc3C3CC3)cc2C1 [Compound 1-440, 7-(3-(2-cyclopropylphenyl)-7,8-dihydro-1,6-naphthyridin-6(5H)-yl)-8-methyl-4H-pyrimido [1,2-b]pyridazin-4-one] | 56 | 6.42 |
| Cc1c(N2CCc3ncc(-c4cncc(C(F)(F)F)c4)cc3C2)nn2c(=O)ccnc2c1C [Compound 1-102, 8,9-dimethyl-7-(3-(5-(trifluoromethyl)pyridin-3-yl)-7,8-dihydro-1,6-naphthyridin-6(5H)-yl)-4H-pyrimido[1,2-b]pyridazin-4-one] | 83 | 6.13 |
| Cc1cc2nccc(=O)n2nc1N1CCc2ncc(NS(=O)(=O)C3CC3)cc2C1 [Compound 2-118, N-(6-(8-methyl-4-oxo-4H-pyrimido[1,2-b]pyridazin-7-yl)-5,6,7,8-tetrahydro-1,6-naphthyridin-3-yl)cyclopropanesulfonamide] | 48 | 5.52 |
| Cc1cc(Nc2cnc3c(c2)CN(c2nn4c(=O)ccnc4cc2C)CC3)cnc1Cl [Compound 2-132, 7-(3-((6-chloro-5-methylpyridin-3-yl)amino)-7,8-dihydro-1,6-naphthyridin-6(5H)-yl)-8-methyl-4H-pyrimido[1,2-b]pyridazin-4-one] | 93 | 6.23 |
| Cc1c(N2CCc3ncc(N4CCOC4=O)cc3C2)nn2c(=O)ccnc2c1C [Compound 2-144, 3-(6-(8,9-dimethyl-4-oxo-4H-pyrimido[1,2-b]pyridazin-7-yl)-5,6,7,8-tetrahydro-1,6-naphthyridin-3-yl)oxazolidin-2-one] | 98 | 5.80 |
| Cc1cc(=O)n2nc(N3CCc4ncc(C(F)(F)F)cc4C3)c(C)cc2n1 [Compound 1-16, 2,8-dimethyl-7-(3-(trifluoromethyl)-7,8-dihydro-1,6-naphthyridin-6(5H)-yl)-4H-pyrimido[1,2-b]pyridazin-4-one] | 71 | 6.47 |
| Cc1cc2nccc(=O)n2nc1N1CCc2ncc(-c3ncc(C)n3C)cc2C1 [Compound 1-391, 7-(3-(1,5-dimethyl-1H-imidazol-2-yl)-7,8-dihydro-1,6-naphthyridin-6(5H)-yl)-8-methyl-4H-pyrimido[1,2-b]pyridazin-4-one] | 49 | – |
| Cc1c(N2CCc3ncc(-c4cnn(-c5ccccn5)c4)cc3C2)nn2c(=O)cc(C(F)F)nc2c1C [Compound 1-163, 2-(difluoromethyl)-8,9-dimethyl-7-(3-(1-(pyridin-2-yl)-1H-pyrazol-4-yl)-7,8-dihydro-1,6-naphthyridin-6(5H)-yl)-4H-pyrimido[1,2-b]pyridazin-4-one] | 71 | 5.99 |
| COCc1cc(=O)n2nc(N3CCc4ncc(-c5cccnc5)cc4C3)c(C)cc2n1 [Compound 1-365, 2-(methoxymethyl)-8-methyl-7-(3-(pyridin-3-yl)-7,8-dihydro-1,6-naphthyridin-6(5H)-yl)-4H-pyrimido[1,2-b] pyridazin-4-one] | 69 | 6.49 |
| Cc1cc(=O)n2nc(N3CCc4ncc(-c5cnc(Cl)cc5C)cc4C3)c(C)cc2n1 [Compound 1-207, 7-(3-(6-chloro-4-methylpyridin-3-yl)-7,8-dihydro-1,6-naphthyridin-6(5H)-yl)-2,8-dimethyl-4H-pyrimido[1,2-b]pyridazin-4-one] | 91 | 6.50 |
| COc1nccc(-c2cnc3c(c2)CN(c2nn4c(=O)ccnc4cc2C)CC3)c1C [Compound 1-427, 7-(3-(2-methoxy-3-methylpyridin-4-yl)-7,8-dihydro-1,6-naphthyridin-6(5H)-yl)-8-methyl-4H-pyrimido[1,2-b]pyridazin-4-one] | 78 | 5.82 |
| Cc1cc2nccc(=O)n2nc1N1CCc2ncc(Nc3ccnnc3)cc2C1 [Compound 2-136, 8-methyl-7-(3-(pyridazin-4-ylamino)-7,8-dihydro-1,6-naphthyridin-6(5H)-yl)-4H-pyrimido[1,2-b]pyridazin-4-one] | 101 | 6.51 |
| Cc1c(N2CCc3ncc(-c4cncnc4)cc3C2)nn2c(=O)cc(C(F)F)nc2c1C [Compound 1-159, 2-(difluoromethyl)-8,9-dimethyl-7-(3-(pyrimidin-5-yl)-7,8-dihydro-1,6-naphthyridin-6(5H)-yl)-4H-pyrimido[1,2-b]pyridazin-4-one] | 86 | 5.51 |

Other lines, results leading:

| Emax at 30 µM [%] | pEC50 | SMILES |
| --- | --- | --- |
| 96 | 6.96 | COCc1cc(=O)n2nc(N3CCc4ncc(-c5ccc(C)nc5)cc4C3)c(C)cc2n1 [Compound 1-314, 2-(methoxymethyl)-8-methyl-7-(3-(6-methylpyridin-3-yl)-7,8-dihydro-1,6-naphthyridin-6(5H)-yl)-4H-pyrimido[1,2-b]pyridazin-4-one] |
| 67 | 6.64 | COCc1cc(=O)n2nc(N3CCc4ncc(-c5ccc(OC(F)F)nc5)cc4C3)c(C)cc2n1 [Compound 1-374, 7-(3-(6-(difluoromethoxy)pyridin-3-yl)-7,8-dihydro-1,6-naphthyridin-6(5H)-yl)-2-(methoxymethyl)-8-methyl-4H-pyrimido[1,2-b]pyridazin-4-one] |
| 87 | 6.72 | Cc1cc(=O)n2nc(N3CCc4ncc(-c5cc(F)ccc5C)cc4C3)c(C)c(C)c2n1 [Compound 1-138, 7-(3-(5-fluoro-2-methylphenyl)-7,8-dihydro-1,6-naphthyridin-6(5H)-yl)-2,8,9-trimethyl-4H-pyrimido[1,2-b]pyridazin-4-one] |
| 96 | 7.12 | Cc1cc2nc(C(F)F)cc(=O)n2nc1N1CCc2ncc(-c3ccnn3C)cc2C1 [Compound 1-36, 2-(difluoromethyl)-8-methyl-7-(3-(1-methyl-1H-pyrazol-5-yl)-7,8-dihydro-1,6-naphthyridin-6(5H)-yl)-4H-pyrimido[1,2-b]pyridazin-4-one] |
| 104 | 7.19 | Cc1ccc(-c2cnc3c(c2)CN(c2nn4c(=O)cc(C(F)(F)F)nc4cc2C)CC3)cn1 [Compound 1-80, 8-methyl-7-(3-(6-methylpyridin-3-yl)-7,8-dihydro-1,6-naphthyridin-6(5H)-yl)-2-(trifluoromethyl)-4H-pyrimido[1,2-b]pyridazin-4-one] |
| 115 | 7.72 | Cc1cc2nc(C(F)(F)F)cc(=O)n2nc1N1CCc2ncc(N3CCCn4nccc43)cc2C1 [Compound 2-11, 7-(3-(6,7-dihydropyrazolo[1,5-a]pyrimidin-4(5H)-yl)-7,8-dihydro-1,6-naphthyridin-6(5H)-yl)-8-methyl-2-(trifluoromethyl)-4H-pyrimido[1,2-b]pyridazin-4-one] |
| 86 | 6.87 | Cc1nn(C)c(C)c1-c1cnc2c(c1)CN(c1nn3c(=O)cc(C(F)F)nc3c(C)c1C)CC2 [Compound 1-310, 2-(difluoromethyl)-8,9-dimethyl-7-(3-(1,3,5-trimethyl-1H-pyrazol-4-yl)-7,8-dihydro-1,6-naphthyridin-6(5H)-yl)-4H-pyrimido[1,2-b]pyridazin-4-one] |
| 93 | 7.42 | Cc1c(N2CCc3ncc(C(F)(F)F)cc3C2)nn2c(=O)cc(C(F)F)nc2c1C [Compound 1-40, 2-(difluoromethyl)-8,9-dimethyl-7-(3-(trifluoromethyl)-7,8-dihydro-1,6-naphthyridin-6(5H)-yl)-4H-pyrimido[1,2-b]pyridazin-4-one] |
| 92 | 6.85 | COCc1cc(=O)n2nc(N3CCc4ncc(-c5ccco5)cc4C3)c(C)cc2n1 [Compound 1-371, 7-(3-(furan-2-yl)-7,8-dihydro-1,6-naphthyridin-6(5H)-yl)-2-(methoxymethyl)-8-methyl-4H-pyrimido[1,2-b]pyridazin-4-one] |
| 96 | 7.15 | Cc1ccc(-c2cnc3c(c2)CN(c2nn4c(=O)ccnc4c(C)c2C)CC3)cn1 [Compound 1-61, 8,9-Dimethyl-7-(3-(6-methylpyridin-3-yl)-7,8-dihydro-1,6-naphthyridin-6(5H)-yl)-4H-pyrimido[1,2-b]pyridazin-4-one] |
| 84 | 6.54 | Cc1cc(=O)n2nc(N3CCc4ncc(-c5cc(F)ccc5C)cc4C3)c(C)cc2n1 [Compound 1-210, 7-(3-(5-fluoro-2-methylphenyl)-7,8-dihydro-1,6-naphthyridin-6(5H)-yl)-2,8-dimethyl-4H-pyrimido[1,2-b]pyridazin-4-one] |
